Our source for the relative viability values is the supplement of paper PMC10307832.

Holding throughout (experiment): relative viability (nuclei count vs DMSO), 5 days (fraction); higher = more cells survive
Compound in assay [1]: N[C@@H]1CCCN(c2c(/C=C3\SC(=O)NC3=O)cccc2-c2ccccc2)C1 [AZD1208] + CC(=O)Nc1cccc(-n2c(=O)n(C3CC3)c(=O)c3c(Nc4ccc(I)cc4F)n(C)c(=O)c(C)c32)c1 [Trametinib] (partner 0.02 µM)
The procedure, abridged:
(§1)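 After 5 days of treatment, lung cancer cells in 1536-well plates were fixed and stained in a single step (final 0.05% Triton X-100, 1% formaldehyde, 1 ug/ml Hoechst) and their nuclei counted on 4× images. Treatment had been applied by pin tool the day after seeding as one drug alone or as a fixed anchor-drug dose with five library-drug doses (not always all listed) in √10 steps. Relative viability is the nuclei count of treated wells divided by that of vehicle wells, and values are medians of duplicate plates.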

Compound in assay [2]: N[C@@H]1CCCN(c2c(/C=C3\SC(=O)NC3=O)cccc2-c2ccccc2)C1 [AZD1208] + CC1(C)CCC(c2ccc(Cl)cc2)=C(CN2CCN(c3ccc(C(=O)NS(=O)(=O)c4ccc(N[C@H](CCN5CCOCC5)CSc5ccccc5)c(S(=O)(=O)C(F)(F)F)c4)cc3)CC2)C1 [Navitoclax] (partner 0.5 µM)
The procedure, abridged: as §1

Compound in assay [3]: N[C@@H]1CCCN(c2c(/C=C3\SC(=O)NC3=O)cccc2-c2ccccc2)C1 [AZD1208] + Nc1nc2[nH]cc(CCc3ccc(C(=O)N[C@@H](CCC(=O)O)C(=O)O)cc3)c2c(=O)[nH]1 [Pemetrexed] (partner 0.2 µM)
The procedure, abridged: as §1

Compound in assay [4]: CN1CCN(CC1)C2=CC(=C(C=C2)NC3=NC(=C(S3)C(=O)C4=C(C=CC=C4Cl)Cl)N)OC [XMD14-99] + CS(=O)(=O)CCNCc1ccc(-c2ccc3ncnc(Nc4ccc(OCc5cccc(F)c5)c(Cl)c4)c3c2)o1 [Lapatinib] (partner 2 µM)
In a few lines:
as §1

As to UMC-11, the relative viability was 0.498 in assay [1] (first compound 0.08 µM); 0.623 in assay [1] (first compound 0.253 µM); 0.454 in assay [1] (first compound 0.8 µM); 0.381 in assay [1] (first compound 2.53 µM); 0.313 in assay [1] (first compound 8 µM); 0.272 in assay [2] (first compound 0.08 µM). The relative viability was found to be 0.301 in assay [2] (first compound 0.253 µM); 0.251 in assay [2] (first compound 0.8 µM); 0.236 in assay [2] (first compound 2.53 µM); 0.195 in assay [2] (first compound 8 µM); 0.689 in assay [3] (first compound 0.08 µM); 0.718 in assay [3] (first compound 0.253 µM). The relative viability in assay [3] (first compound 0.8 µM) amounted to 0.631; in assay [3] (first compound 2.53 µM) it was 0.594; in assay [3] (first compound 8 µM), 0.48; in assay [4] (first compound 0.08 µM), 1.13; in assay [4] (first compound 0.8 µM), 0.969; in assay [4] (first compound 2.53 µM), 0.974. Further, the relative viability in assay [4] (first compound 8 µM) is 0.744.
